# Measurements as given in patent US20100249121A1, “USE OF TETRAMIC ACID DERIVATIVES FOR C[…]-TR[…]” (priority 2007, published 2010).
# Tests used:
# Format in all cases: in vivo
# [1] = system: Tomato Yellow Leaf Curl Virus (TYLCV), virus-transferring vector Bemisia argentifolii; test: Example 1: field plots of tomatoes treated against the vector, virus infestation scored; conditions: 72 g of a.i./ha, 200 SC, four applications at 7-day intervals, 25 days after the 4th treatment, TYLCV on tomatoes
# Procedure: In three replications, plots of a size of 7.5 m^2 with tomatoes of the cultivar “Jumbo” are treated against the virus-transferring vector Bemisia argentifolii. Application is carried out using a motor-operated knapsack sprayer. The active compound example (I-2) (240 SC) in a tank mix with 0.186% a.i. soya oil Natur'L Oleo (OL 930) and the commercial standard imidacloprid (200 SC) are applied at the stated application rates. Four applications are carried out at intervals of in each case 7 days using a water application rate of in each case 300 l, 300 l, 500 l and 600 l/ha.
# Evaluation is carried out 25 days after the 4th treatment by scoring the virus infestation with the Tomato Yellow Leaf Curl Virus (TYLCV) on the plants.
# In the control, 11.7 of 15 plants were infected by the TYLCV.
# [2] = system: Tomato Yellow Leaf Curl Virus (TYLCV), virus-transferring vector Bemisia argentifolii; test: Example 2: field plots of tomatoes treated against the vector, virus infestation scored; conditions: 72 g of a.i./ha, 200 SC, three applications at 7-day intervals, 14 days after the 3rd treatment, TYLCV on tomatoes
# Procedure: In three replications, plots of a size of 7.5 m^2 with tomatoes of the cultivar “Jumbo” are treated against the virus-transferring vector Bemisia argentifolii. Application is carried out using a pressurized air-operated knapsack sprayer. The active compound example (I-2) (240 SC) in a tank mix with 0.186% a.i. soya oil Natur'L Oleo (OL 930) and the commercial standard imidacloprid (200 SC) are applied at the stated application rates. Three applications are carried out at intervals of in each case 7 days. The water application rates are 300 l/ha, 400 l/ha and 600 l/ha.
# Evaluation is carried out 14 days after the 3rd treatment by scoring the virus infestation with the Tomato Yellow Leaf Curl Virus (TYLCV) on the plants.
# All 18 plants in the control were infected by the TYLCV.
# [3] = system: Bean Golden Mosaic Virus (BGMV), virus-transferring vector Bemisia argentifolii; test: Example 3: field plots of bush beans treated against the vector, virus infestation scored; conditions: 72 g of a.i./ha, 200 SC, three applications at 7-day intervals, 16 days after the first treatment, BGMV on bush beans
# Procedure: In three replications, plots of a size of 12 m^2 with bush beans of the cultivar “Carioca” are treated against the virus-transferring vector Bemisia argentifolii. Application is carried out using a pressurized air-operated knapsack sprayer. The active compound example (I-2) (240 SC) in a tank mix with 0.186% a.i. soya oil Natur'L Oleo (OL 930) and the commercial standard imidacloprid (200 SC) are applied at the stated application rates. Three applications are carried out at intervals of in each case 7 days. The water application rate is in each case 300 l/ha.
# Evaluation is carried out 16 days after the first treatment by scoring the virus infestation with the Bean Golden Mosaic Virus (BGMV) on the plants.
# All 10 plants in the control were infected by the BGMV.
# [4] = system: Tomato Spotted Wilt Virus (TSWV); test: Example 4: field plots of tomatoes, tank mix versus single actives, virus infection scored; conditions: 72 g of a.i./ha, SC 200 on its own, four applications at 7-day intervals, 25 days after the treatment
# Text: The expected activity for a given combination of two active compounds can be calculated according to S. R. Colby, Weeds 15 (1967), 20-22 as follows:
# If • X is the degree of control, expressed in % of the untreated control, when using the active compound A at an application rate of m g/ha or in a concentration of m ppm, • Y is the degree of control, expressed in % of the untreated control, when using the active compound B at an application rate of n g/ha or in a concentration of n ppm and • E is the degree of control, expressed in % of the untreated control, when using the active compounds A and B at application rates of m and n g/ha or in a concentration of m and n ppm, then
# If the actual degree of control is greater than the calculated degree of control, the control of the combination is superadditive, i.e. a synergistic effect is present. In this case, the degree of control actually observed must be greater than the value for the expected kill rate (E) calculated using the formula given above.
# After the desired period of time, the control in % is determined. 100% means that no plants have been infected by viruses; 0% means that all plants have been infected by viruses.
# In three replications, plots of a size of 7.5 m^2 with tomatoes of the cultivar “Jumbo” are treated against the virus-transferring vector Bemisia argentifolii using a compressed air-operated sprayer. […]
smiles,measurement,setting,value
O=[N+]([O-])/N=C1\NCCN1Cc1ccc(Cl)nc1 [imidacloprid],Degree of control according to Abbott (%) 25 d,[1],40.0%
same,Degree of control according to Abbott (%) 14 d,[2],33%
same,Degree of control according to Abbott (%) 16 d,[3],60.0%
same,Degree of control according to Abbott (%) 25 d,[4],80%
